How the values were obtained:
Format in all cases: in vitro ADME
Supersomes CYP2C8 = target: T1, Supersomes CYP2C8 (Homo sapiens, UniProt P10632); experiment: Individual recombinant CYP isoform stability assay, CYP2C8; settings: 200 pmol per mL CYP2C8, 5 microgram per mL compound, 37° C., 0-60 minutes
T1 construct: purchased
T1 sequence (P10632 1-490): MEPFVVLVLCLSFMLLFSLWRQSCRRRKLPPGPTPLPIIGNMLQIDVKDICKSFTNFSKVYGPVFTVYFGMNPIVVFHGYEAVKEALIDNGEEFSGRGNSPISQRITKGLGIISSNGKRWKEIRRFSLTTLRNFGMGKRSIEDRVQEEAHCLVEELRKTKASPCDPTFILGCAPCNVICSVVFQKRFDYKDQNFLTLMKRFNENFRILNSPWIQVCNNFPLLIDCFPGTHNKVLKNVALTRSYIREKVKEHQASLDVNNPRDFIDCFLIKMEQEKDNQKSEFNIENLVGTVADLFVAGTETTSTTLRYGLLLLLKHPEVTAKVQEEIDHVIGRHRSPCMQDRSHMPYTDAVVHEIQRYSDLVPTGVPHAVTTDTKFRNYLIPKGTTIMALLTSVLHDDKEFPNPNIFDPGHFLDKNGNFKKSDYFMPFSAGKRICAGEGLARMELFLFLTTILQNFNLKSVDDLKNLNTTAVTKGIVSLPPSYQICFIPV
Experimental: (§1) In Vitro Individual Recombinant CYP Isoform Stability Assays
(§2) Individual recombinant CYP isoform stability assays were conducted with Supersomes™ CYP2C19, CYP3A4, CYP3A5, CYP2D6, CYP2C8, and CYP2C9. The CYP isoforms were individually taken up in a NADPH-generating system (4.4 mM NADPH, 51.2 mM glucose 6-phosphate, 12 units per mL glucose 6-phosphate dehydrogenase and 6.6 mM magnesium chloride) in 2% sodium bicarbonate. The final assay concentrations were 100 pmol per mL for the following isoforms: CYP3A4, CYP2C19, and CYP2D6; other CYP isoforms final assay concentrations were 150 pmol per mL, including: CYP1A2 and CYP2C9; and yet other CYP isoforms final assay concentrations were 200 pmol per mL, including: CYP3A5 and CYP2C8. Test compounds were prepared as solutions in 20% acetonitrile-water and added to the assay mixture (final assay concentration 5 microgram per mL) and incubated at 37° C. Final concentration of acetonitrile in the assay should be <1%. Aliquots (50 μL) were taken out at times 0, 15, 30, 45, and 60 minutes, and diluted with ice cold acetonitrile (200 μL) to stop the reactions. Samples were centrifuged at 12,000 RPM for 10 minutes to precipitate proteins. Supernatants were transferred to microcentrifuge tubes and stored for LC/MS/MS analysis of the degradation half-life of the test compounds. […]

Supersomes CYP3A5 = target: T2, Supersomes CYP3A5 (Homo sapiens, UniProt P20815); experiment: Individual recombinant CYP isoform stability assay, CYP3A5; settings: 200 pmol per mL CYP3A5, 5 microgram per mL compound, 37° C., 0-60 minutes
T2 construct: purchased
Experimental: as §1, §2

Supersomes CYP3A4 = target: T3, Supersomes CYP3A4 (Homo sapiens, UniProt P08684); experiment: Individual recombinant CYP isoform stability assay, CYP3A4; settings: 100 pmol per mL CYP3A4, 5 microgram per mL compound, 37° C., 0-60 minutes
T3 construct: purchased
Experimental: as §1, §2

Supersomes CYP2C9 = target: T4, Supersomes CYP2C9 (Homo sapiens, UniProt P11712); experiment: Individual recombinant CYP isoform stability assay, CYP2C9; settings: 150 pmol per mL CYP2C9, 5 microgram per mL compound, 37° C., 0-60 minutes
T4 construct: purchased
Experimental: as §1, §2

T4 sequence (P11712 whole entry, canonical isoform): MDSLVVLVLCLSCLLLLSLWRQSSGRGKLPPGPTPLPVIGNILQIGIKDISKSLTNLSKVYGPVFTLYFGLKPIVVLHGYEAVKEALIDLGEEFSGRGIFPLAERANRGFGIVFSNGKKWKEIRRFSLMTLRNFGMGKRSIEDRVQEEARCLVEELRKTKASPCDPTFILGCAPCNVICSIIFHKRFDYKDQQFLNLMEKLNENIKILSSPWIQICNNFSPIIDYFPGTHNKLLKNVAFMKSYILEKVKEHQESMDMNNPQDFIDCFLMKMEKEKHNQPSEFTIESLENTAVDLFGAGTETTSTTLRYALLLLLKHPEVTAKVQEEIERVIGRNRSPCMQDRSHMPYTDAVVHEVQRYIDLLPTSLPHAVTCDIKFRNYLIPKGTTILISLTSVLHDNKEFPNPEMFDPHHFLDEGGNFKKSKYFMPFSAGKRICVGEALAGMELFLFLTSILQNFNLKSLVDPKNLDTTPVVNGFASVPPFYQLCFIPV
T2 sequence (P20815 whole entry, canonical isoform): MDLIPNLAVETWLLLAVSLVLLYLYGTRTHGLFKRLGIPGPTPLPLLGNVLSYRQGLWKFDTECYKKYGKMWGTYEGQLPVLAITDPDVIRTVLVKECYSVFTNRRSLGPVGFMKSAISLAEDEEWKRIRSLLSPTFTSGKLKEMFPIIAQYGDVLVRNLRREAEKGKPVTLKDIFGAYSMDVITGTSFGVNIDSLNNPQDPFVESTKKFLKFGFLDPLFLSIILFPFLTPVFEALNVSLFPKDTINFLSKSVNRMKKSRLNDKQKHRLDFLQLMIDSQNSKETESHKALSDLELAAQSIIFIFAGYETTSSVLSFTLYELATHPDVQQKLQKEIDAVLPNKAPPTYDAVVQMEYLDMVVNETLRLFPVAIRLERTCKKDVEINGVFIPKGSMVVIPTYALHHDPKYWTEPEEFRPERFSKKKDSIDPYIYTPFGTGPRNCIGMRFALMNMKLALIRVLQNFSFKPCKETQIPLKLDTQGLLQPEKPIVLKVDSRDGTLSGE
T3 sequence (P08684 whole entry, canonical isoform): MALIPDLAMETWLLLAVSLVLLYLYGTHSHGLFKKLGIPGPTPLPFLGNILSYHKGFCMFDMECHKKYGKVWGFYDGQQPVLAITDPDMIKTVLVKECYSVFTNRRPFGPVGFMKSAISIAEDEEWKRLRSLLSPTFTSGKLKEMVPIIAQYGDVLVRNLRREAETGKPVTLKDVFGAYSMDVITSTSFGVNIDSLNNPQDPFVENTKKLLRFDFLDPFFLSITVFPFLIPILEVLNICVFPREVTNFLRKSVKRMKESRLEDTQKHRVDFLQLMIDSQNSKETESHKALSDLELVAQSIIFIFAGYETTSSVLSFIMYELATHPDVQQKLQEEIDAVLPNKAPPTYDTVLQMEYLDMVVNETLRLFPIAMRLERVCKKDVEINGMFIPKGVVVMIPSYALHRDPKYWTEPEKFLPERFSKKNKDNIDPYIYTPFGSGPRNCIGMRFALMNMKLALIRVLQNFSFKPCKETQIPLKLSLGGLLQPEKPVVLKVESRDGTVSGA

- metabolism by CYP2C8 (Supersomes CYP2C8): not metabolized
- metabolism by CYP3A5 (Supersomes CYP3A5): not metabolized
- metabolism by CYP3A4 (Supersomes CYP3A4): not metabolized
- metabolism by CYP2C9 (Supersomes CYP2C9): not metabolized
SMILES: CN(C)CCOC(c1ccccc1)c1ccnn1C (stereo not shown) [Cizolirtine, N,N-dimethyl-2-[(1-methyl-1H-pyrazol-5-yl)phenylmethoxy]ethanamine]

— patent publication US20100291151A1, “1-METHYLPYRAZOLE MODULATORS OF SUBSTANCE P, CALCITONIN GENE-RELATED PEPTIDE, ADRENERGIC RECEPTOR, AND/OR 5-HT RECEPTOR” (priority 2009, published 2010)
